Laboratory results taken from publication PMC8953592, “Mechanism of Action and Therapeutic Potential of the β-Hairpin Antimicrobial Peptide Capitellacin from the Marine Polychaeta Capitella teleta” (Marine Drugs, 2022).
Positions of bridges follow the written chain, without caps; N, C: chain ends. Residues, ends and D or L forms follow the SMILES beside them.

How the values were obtained:
Gram-positive bacteria = conditions: Gram-positive test strains
Gram-negative bacteria = conditions: Gram-negative test strains
[1] = test system: Micrococcus luteus B-1314; conditions: B-1314, 24 h
[2] = test system: Staphylococcus aureus 209P; conditions: 24 h
Bacillus subtilis B-886 = conditions: B-886, 24 h
E. coli ML-35p [3] = conditions: 24 h
E. coli ATTC 25922 = conditions: ATTC 25922, 24 h
E. coli CI 3600 = conditions: CI 3600, 24 h
E. coli CI 214 = conditions: CI 214, 24 h
E. cloacae CI 4172 = conditions: CI 4172, 24 h
A. baumanii CI 2675 = conditions: 24 h
P. aeruginosa PAO1 = conditions: PAO1, 24 h
K. pneumonia ATCC 700603 = conditions: ATCC 700603, 24 h
human red blood cells = assay: Hemolytic assay (hemoglobin release); conditions: human erythrocytes
Protocol: To examine the ability of the peptides to permeabilize cytoplasmic membranes of bacterial and mammalian cells, the ONPG test and hemolysis assay were used, respectively. […] The hemolytic activity of AMPs against a suspension of human erythrocytes was determined by the method of double serial dilution in buffered saline followed by incubation for 1.5 h (Figure 2A). […] Next, we used ONPG assay to estimate E. coli inner membrane permeabilization by the peptides.
The hemolytic activity of compounds was performed using human red blood cells (hRBS), in accordance with the previously described approach. Briefly, hRBS of a healthy donor were separated from fresh blood and washed 3 times with ice-cold phosphate-buffered saline (PBS pH 7.4) and centrifuged at 500× g for 10 min; additionally, citrate buffer was added to prevent clotting. Further, supernatant was discarded and erythrocyte suspension was prepared in PBS as 8% (v/v) solution. The test was carried out in the 96-well plate, taking into account two-fold serial dilutions of studied peptides. […] Then the plate was centrifuged at 1000× g for 15 min for the precipitation of erythrocyte. The amount of hemoglobin release was determined by absorption spectroscopy at 405 nm. Triton X-100 (0.1% v/v) was used as a positive control, which underwent a complete lysis of erythrocytes, and PBS working solution was used as a negative control. The percentage hemolysis was calculated by the following formula: Hemolysis (%)=OD405(compound)− OD405 (zero lysis)/OD405(100 % lysis)− OD405 (zero lysis)×100%
The assays were conducted three times. The quantitative data were presented as an average means with standard deviations.

E. coli ML-35p [4] = test system: E. coli ML-35p; design: method as in 2 sources, one per row (each row's own in cited_ref): ref 4, 19, 27 = [4]; PMID 33291782; doi:10.3390/md18120620; 4. Panteleev P.V. Tsarev A.V. Safronova V.N. Reznikova O.V. Bolosov I.A. Sychev S.V. Shenkarev Z.O. Ovchinnikova T.V. Structure Elucidation and Functional Studies of a Novel β-Hairpin Antimicrobial Pe || [19]; PMID 26814379; doi:10.1002/psc.2843; 19. Panteleev P.V. Bolosov I.A. Ovchinnikova T.V. Bioengineering and Functional Characterization of Arenicin Shortened Analogs with Enhanced Antibacterial Activity and Cell Selectivity J. Pept. Sci. 2 || [27]; PMID 25558400; doi:10.32607/20758251-2014-6-4-99-109; 27. Shamova O.V. Orlov D.S. Balandin S.V. Shramova E.I. Tsvetkova E.V. Panteleev P.V. Leonova Y.F. Tagaev A.A. Kokryakov V.N. Ovchinnikova T.V. Acipensins—Novel Antimicrobial Peptides from Leukocytes ||| ref 4 = [4]; PMID 33291782; doi:10.3390/md18120620; 4. Panteleev P.V. Tsarev A.V. Safronova V.N. Reznikova O.V. Bolosov I.A. Sychev S.V. Shenkarev Z.O. Ovchinnikova T.V. Structure Elucidation and Functional Studies of a Novel β-Hairpin Antimicrobial Pe; conditions: at a concentration several-fold higher than MIC; cited from earlier work
E. coli MDR CI 1057 = format: cell-based

CC[C@H](C)[C@@H]1NC(=O)[C@@H](NC(=O)[C@@H](NC(=O)[C@H](CCCNC(=N)N)NC(=O)[C@@H]2CCCN2C(=O)[C@H](CO)NC(=O)[C@@H](N)CCCNC(=N)N)C(C)C)CSSC[C@@H](C(=O)N[C@@H](Cc2c[nH]c3ccccc23)C(=O)NCC(=O)O)NC(=O)[C@H](CCCNC(=N)N)NC(=O)[C@H](CCCNC(=N)N)NC(=O)[C@H](Cc2ccc(O)cc2)NC(=O)[C@@H]2CSSC[C@H](NC(=O)[C@H](C(C)C)NC(=O)[C@H](CCCNC(=N)N)NC1=O)C(=O)N[C@@H](CCCNC(=N)N)C(=O)N[C@@H](CC(N)=O)C(=O)NCC(=O)N[C@@H](C(C)C)C(=O)N2 [CT2]
Geometric mean (GM) of the peptide MICs (Gram-positive bacteria): 3.17 µM | Geometric mean (GM) of the peptide MICs (Gram-negative bacteria): 0.46 µM

CC[C@H](C)[C@@H]1NC(=O)[C@@H](NC(=O)[C@@H](NC(=O)[C@H](CCCNC(=N)N)NC(=O)[C@@H]2CCCN2C(=O)[C@@H](N)CO)C(C)C)CSSC[C@@H](C(=O)N[C@@H](Cc2c[nH]c3ccccc23)C(=O)O)NC(=O)[C@H](CCCNC(=N)N)NC(=O)[C@H](CCCNC(=N)N)NC(=O)[C@H](Cc2ccc(O)cc2)NC(=O)[C@@H]2CSSC[C@H](NC(=O)[C@H](C(C)C)NC(=O)[C@H](CCCNC(=N)N)NC1=O)C(=O)N[C@@H](CCCNC(=N)N)C(=O)N[C@@H](CC(N)=O)C(=O)NCC(=O)N[C@@H](C(C)C)C(=O)N2 [CT3]
Geometric mean (GM) of the peptide MICs (Gram-positive bacteria): 10.08 µM | Geometric mean (GM) of the peptide MICs (Gram-negative bacteria): 1.09 µM

CC[C@H](C)[C@@H]1NC(=O)[C@@H](NC(=O)[C@@H](NC(=O)[C@@H](N)CCCNC(=N)N)C(C)C)CSSC[C@@H](C(=O)N[C@@H](Cc2c[nH]c3ccccc23)C(=O)O)NC(=O)[C@H](CCCNC(=N)N)NC(=O)[C@H](CCCNC(=N)N)NC(=O)[C@H](Cc2ccc(O)cc2)NC(=O)[C@@H]2CSSC[C@H](NC(=O)[C@H](C(C)C)NC(=O)[C@H](CCCNC(=N)N)NC1=O)C(=O)N[C@@H](CCCNC(=N)N)C(=O)N[C@@H](CC(N)=O)C(=O)NCC(=O)N[C@@H](C(C)C)C(=O)N2 [CT4]
Geometric mean (GM) of the peptide MICs (Gram-positive bacteria): 6.35 µM | Geometric mean (GM) of the peptide MICs (Gram-negative bacteria): 0.59 µM

CC[C@H](C)[C@@H]1NC(=O)[C@@H](NC(=O)[C@H](Cc2c[nH]c3ccccc23)NC(=O)[C@@H](N)CCCCN)CSSC[C@@H](C(=O)N[C@@H](CCCNC(=N)N)C(=O)O)NC(=O)[C@H](CCCNC(=N)N)NC(=O)[C@H](CCCNC(=N)N)NC(=O)[C@H](Cc2ccc(O)cc2)NC(=O)[C@@H]2CSSC[C@H](NC(=O)[C@H](C(C)C)NC(=O)[C@H](CCCNC(=N)N)NC1=O)C(=O)N[C@@H](CCCNC(=N)N)C(=O)N[C@@H](CC(N)=O)C(=O)NCC(=O)N[C@@H](C(C)C)C(=O)N2 [CT5]
Minimum Inhibitory Concentration [1]: 8 µM | Minimum Inhibitory Concentration [2]: 8 µM | Minimum Inhibitory Concentration (Bacillus subtilis B-886): 32 µM | Geometric mean (GM) of the peptide MICs (Gram-positive bacteria): 12.7 µM | Minimum Inhibitory Concentration (E. coli ML-35p [3]): 0.5 µM | Minimum Inhibitory Concentration (E. coli ATTC 25922): 0.5 µM | Minimum Inhibitory Concentration (E. coli CI 3600): 0.5 µM | Minimum Inhibitory Concentration (E. coli CI 214): 0.5 µM | Minimum Inhibitory Concentration (E. cloacae CI 4172): 4 µM | Minimum Inhibitory Concentration (A. baumanii CI 2675): 0.5 µM | Minimum Inhibitory Concentration (P. aeruginosa PAO1): 4 µM | Minimum Inhibitory Concentration (K. pneumonia ATCC 700603): 4 µM | Geometric mean (GM) of the peptide MICs (Gram-negative bacteria): 1.09 µM

CC(C)[C@@H]1NC(=O)CNC(=O)[C@H](CC(N)=O)NC(=O)[C@H](CCCNC(=N)N)NC(=O)[C@@H]2CSSC[C@H](NC1=O)C(=O)N[C@@H](Cc1ccc(O)cc1)C(=O)N[C@@H](CCCNC(=N)N)C(=O)N[C@@H](CCCNC(=N)N)C(=O)N[C@H](C(=O)N[C@@H](Cc1c[nH]c3ccccc13)C(=O)O)CSSC[C@H](NC(=O)[C@@H](NC(=O)[C@@H](N)CCCNC(=N)N)C(C)C)C(=O)N[C@@H](Cc1ccccc1)C(=O)N[C@@H](CCCNC(=N)N)C(=O)N[C@@H](C(C)C)C(=O)N2 [CT6]
Geometric mean (GM) of the peptide MICs (Gram-positive bacteria): 6.35 µM | Geometric mean (GM) of the peptide MICs (Gram-negative bacteria): 0.55 µM

CC[C@H](C)[C@@H]1NC(=O)[C@@H](NC(=O)[C@@H](NC(=O)[C@@H](N)CCCNC(=N)N)C(C)C)CSSC[C@@H](C(=O)N[C@@H](Cc2c[nH]c3ccccc23)C(=O)O)NC(=O)[C@H](CCCNC(=N)N)NC(=O)[C@H](CCCNC(=N)N)NC(=O)[C@H](Cc2ccc(O)cc2)NC(=O)[C@@H]2CSSC[C@H](NC(=O)[C@H](C(C)C)NC(=O)[C@H](CCCNC(=N)N)NC1=O)C(=O)N[C@@H](Cc1ccc(O)cc1)C(=O)N[C@@H](CCCNC(=N)N)C(=O)NCC(=O)N[C@@H](C(C)C)C(=O)N2 [CT7] (H-RVCIRVCYRGVCYRRCW-OH; disulfide 3-16, 7-12)
maximum level of lysis (hemolysis) (human red blood cells; 128 μM peptide, 1.5 h incubation, PBS, 37 °C, absorbance 405 nm, Triton X-100 = 100%): ~50% | Minimum Inhibitory Concentration [1]: 1 µM | Minimum Inhibitory Concentration [2]: 2 µM | Minimum Inhibitory Concentration (Bacillus subtilis B-886): 4 µM | Geometric mean (GM) of the peptide MICs (Gram-positive bacteria): 2 µM | Minimum Inhibitory Concentration (E. coli ML-35p [3]): 0.5 µM | Minimum Inhibitory Concentration (E. coli ATTC 25922): 0.25 µM | Minimum Inhibitory Concentration (E. coli CI 3600): 0.25 µM | Minimum Inhibitory Concentration (E. coli CI 214): 0.25 µM | Minimum Inhibitory Concentration (E. cloacae CI 4172): 2 µM | Minimum Inhibitory Concentration (A. baumanii CI 2675): 0.125 µM | Minimum Inhibitory Concentration (P. aeruginosa PAO1): 1 µM | Minimum Inhibitory Concentration (K. pneumonia ATCC 700603): 4 µM | Geometric mean (GM) of the peptide MICs (Gram-negative bacteria): 0.55 µM

CC[C@H](C)[C@@H]1NC(=O)[C@@H](NC(=O)[C@@H](NC(=O)[C@H](CCCNC(=N)N)NC(=O)[C@@H]2CCCN2C(=O)[C@@H](N)CO)C(C)C)CSSC[C@@H](C(=O)N[C@@H](Cc2c[nH]c3ccccc23)C(=O)NCC(=O)O)NC(=O)[C@H](CCCNC(=N)N)NC(=O)[C@H](CCCNC(=N)N)NC(=O)[C@H](Cc2ccc(O)cc2)NC(=O)[C@@H]2CSSC[C@H](NC(=O)[C@H](C(C)C)NC(=O)[C@H](CCCNC(=N)N)NC1=O)C(=O)N[C@@H](CCCNC(=N)N)C(=O)N[C@@H](CC(N)=O)C(=O)NCC(=O)N[C@@H](C(C)C)C(=O)N2 [Cap, capitellacin]
hemolytic effect after 24 h exposure (human red blood cells; 128 µM, 24 h): 50% | concentration above which toxic effect was observed after 24 h (human red blood cells; 24 h, 32 µM = 64× MIC): above 32 µM | Geometric mean (GM) of the peptide MICs (Gram-positive bacteria): 8 µM | Geometric mean (GM) of the peptide MICs (Gram-negative bacteria): 1 µM

arenicin-1
membrane permeabilization after 60 min (E. coli ML-35p [4]): almost full membrane permeabilization

polymyxin B
Initial MIC value (E. coli MDR CI 1057; E. coli MDR CI 1057, Mueller–Hinton medium containing added NaCl, before passages): 0.125 µM | increase in MIC value after 9 passages (E. coli MDR CI 1057; E. coli MDR CI 1057, after just 9 passages): 64 fold

protegrin-1
membrane permeabilization after 60 min (E. coli ML-35p [4]): almost full membrane permeabilization
